# Like-named read-outs stand apart in the source and are kept apart here.
# What was measured:
# [1] = molecular target: T1, androgen receptor (AdEasy+rAR, L929 cells) (Rattus norvegicus, UniProt P15207); experiment: L929 Androgen Receptor Functional Assay, Adenovirus Transduction; type: cell-based; details: for % Activity, L929 androgen receptor functional assay: agonist testing, 3000 nM
# T1 construct: expressed in transfected cells; host or cells: L929 cells transduced with adenovirus AdEasy+rAR
# T1 sequence (P15207 1-902): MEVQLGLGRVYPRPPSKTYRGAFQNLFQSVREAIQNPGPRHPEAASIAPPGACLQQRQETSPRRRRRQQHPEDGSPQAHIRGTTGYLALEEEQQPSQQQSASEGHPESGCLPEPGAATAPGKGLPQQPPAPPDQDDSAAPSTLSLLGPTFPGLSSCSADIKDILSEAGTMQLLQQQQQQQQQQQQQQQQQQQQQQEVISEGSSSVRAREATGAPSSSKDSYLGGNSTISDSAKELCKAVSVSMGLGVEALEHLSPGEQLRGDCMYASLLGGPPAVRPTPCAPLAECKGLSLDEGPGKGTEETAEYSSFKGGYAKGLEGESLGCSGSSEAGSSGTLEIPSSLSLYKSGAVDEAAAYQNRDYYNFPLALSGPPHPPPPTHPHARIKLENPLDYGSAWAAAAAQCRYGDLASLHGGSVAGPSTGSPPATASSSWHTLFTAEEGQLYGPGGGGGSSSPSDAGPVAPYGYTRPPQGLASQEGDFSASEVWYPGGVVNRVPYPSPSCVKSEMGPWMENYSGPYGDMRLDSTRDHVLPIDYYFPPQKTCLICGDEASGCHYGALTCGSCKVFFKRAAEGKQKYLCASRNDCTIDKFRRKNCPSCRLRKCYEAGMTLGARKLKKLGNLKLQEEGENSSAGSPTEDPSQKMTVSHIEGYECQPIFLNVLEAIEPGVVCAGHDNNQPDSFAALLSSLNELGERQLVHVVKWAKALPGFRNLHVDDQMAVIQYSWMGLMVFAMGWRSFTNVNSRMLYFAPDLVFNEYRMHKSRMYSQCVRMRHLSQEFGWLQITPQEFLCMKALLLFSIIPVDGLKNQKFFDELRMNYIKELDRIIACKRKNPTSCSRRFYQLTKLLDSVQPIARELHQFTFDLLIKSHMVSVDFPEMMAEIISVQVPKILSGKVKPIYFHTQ
# In short: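 Luminescent reporter readout after 48 h at 37 °C: rat AR delivered by adenovirus (AdEasy+rAR, moi 1:500) into L929 cells grown without phenol red in charcoal-treated serum. Antagonist wells also received R1881 (2.5× dilution at 2.5 nM).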
# [2] = molecular target: T2, androgen receptor (rat ventral prostate cytosol) (Rattus norvegicus, UniProt P15207); experiment: Androgen Receptor Binding Using Rat Ventral Prostate Cytosol; details: for IC50: read-out: IC50 (nM), Androgen Receptor Binding (Rat Cytosol); for inhibition at 1 µM: read-out: % Inhibition, Androgen Receptor Binding (Rat Cytosol)
# T2 construct: from tissue; host or cells: ventral prostate cytosol of castrated male Sprague Dawley or Wistar rats
# T2 sequence (P15207 1-902): T1 sequence (P15207 1-902)
# Protocol: The assay was run on a 96 well plate with each well filled with a total reaction volume 150 μL, of a solution containing 5 pmol androgen receptor LBD (Panvera) or 30 μL of freshly prepared rat cytosol, 0.5 nM [^3H] […] (TED buffer contains 10 mM Tris.HCl pH 7.4, 1 mM sodium molybdate, 1.5 mM EDTA, 1 mM DTT and 10% (v/v) glycerol.)
# On day one, the solution containing receptor, tracer and TED buffer was distributed into a 96 well plate. Diluted test compound or control vehicle was then added to individual wells and the plate incubated at 4° C. overnight.
# On day two, to each well was then added 20 μL human γ-globulin (ICN 823102), prepared at 25 mg/ml in TE pH 8.0, and 55 μL 40% polyethylene glycol 8000 (J T Baker U222-08), prepared in TE pH 8.0. The plate was incubated at 4° C. for 60 minutes. During incubation, the harvester was rinsed with 10% PEG 8000, prepared in TE pH 8.0, and a GF/C Unifilter-96 was pre-wet with 10% PEG. The binding reaction was filtered, the retentate was washed three times with 10% PEG and dried under vacuum for a couple of minutes, then dried at 50° C. for 5 min and the plate was bottom sealed. Next, 25 μL of Microscint-20 (Packard) was added to the filter wells and the plate was top sealed. The plate wells were then counted on a TopCount (Packard).
# Rat Prostate Cytosol Preparation:
# Male Sprague Dawley or Wistar rats (Charles River, 200-300 g) were used for each preparation. The day before preparing the cytosol, the rats were castrated using standard surgical procedures.
# The rats were euthanized by carbon dioxide asphyxiation. The rat prostates were quickly removed and placed on ice in pre-chilled, pre-weighed 50 mL plastic tubes. No more than five prostates were placed into one tube. The tubes were then weighed and the prostate tissue wet weights calculated.
# To the chilled prostate tissue was then added […] of chilled homogenization buffer. The homogenization buffer was freshly prepared by mixing 10 mM Tris.HCl, pH 7.4, 1 mM sodium molybdate, 1.5 mM EDTA, 1 mM dithiothreitol, 10% (v/v) glycerol and 1% protease inhibitor cocktail (Sigma P 8340).
# The prostate tissue was homogenized in a cold room using a pre-chilled Polytron PT3000 homogenizer (Brinkmann). Homogenization was performed at a speed setting of 20, three times for 10 sec bursts. The tubes containing the prostate tissue was kept on ice while homogenizing. The homogenate was allowed to rest on ice for 20 sec between bursts.
# The homogenate was then placed into pre-chilled 3 mL polycarbonate ultracentrifuge tubes and centrifuged in the TLA-100 rotor of a TL-100 ultracentrifuge for 12 min at 100,000 rpm at 4° C. The resulting supernatant was stored in 1 mL aliquots at −80° C. until needed.
# Binding to the androgen receptor was determined according to the protocol described in Example 86 using the above prepared rat cytosol.
# % Inhibition was determined by testing dilutions of the test compound (usually duplicates of 10 μM) in the binding assay. Counts per well were measured and percents of inhibition determined. […] Counts per well were measured and IC50s determined by linear regression.
# [3] = test system: testosterone-enhanced ventral prostate and seminal vesicle weights; experiment: Ventral Prostate and Seminal Vesicle Weight in vivo Assay; design: species or system rat; details: immature castrated male Sprague Dawley rats, once daily for five days, usually orally 40 mg/kg, with testosterone propionate 2 mg/kg s.c. Note: key: 'active' if the non weight adjusted prostate weight was ≦40 mg or the % Inhibition prostate weight, body weight adjusted was ≧40% @ 2 mg/day dosage; ID50's, if determined, of ≦15 mg/day also indicated an 'active' compound; listed herein as 'inactive' as they did not meet the specified criteria defined above.
# In short: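 Wet weights of ventral prostate and seminal vesicles were taken on day six. Castrated immature male Sprague Dawley rats had received five daily doses of testosterone propionate (2 mg/kg s.c.) together with test compound, typically 40 mg/kg orally. Activity was scored from absolute prostate weight or body-weight-adjusted % inhibition.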
# [4] = molecular target: T3, androgen receptor (AdEasy+rAR, COS-7 cells) (Rattus norvegicus, UniProt P15207); experiment: COS-7 Whole-Cell Androgen Receptor Binding Assay, Adenovirus Transduction
# T3 construct: expressed in transfected cells; host or cells: COS-7 cells transduced with adenovirus AdEasy+rAR
# T3 sequence (P15207 1-902): T1 sequence (P15207 1-902)
# Protocol: COS-7 cells were plated in 96-well plates at 20,000 cells per well, in a solution of DMEM/F12 (GIBCO) containing 10% (v/v) charcoal-treated fetal bovine serum (Hyclone) and lacking phenol red. The cells were then incubated overnight at 37° C. in 5% (v/v) humidified CO2.
# Test compound solutions were prepared by diluting the test compound in 100% (v/v) DMSO, if necessary.
# Next, 1 mL of DMEM/F12 lacking phenol red was pipetted into each of the wells of a 2-mL 96-well assay block. […] The wells were carefully mixed by pipette.
# In a 15 mL or 50 mL sterile centrifuge tube, a dilution in DMEM/F12 of the adenovirus AdEasy+rAR at a moi of 1:50 per well was prepared.
# The medium was removed from the 96-well plates by inversion and the plates dried very briefly, inverted, on a sterile towel. As soon as possible after medium removal, 40 μL of the diluted test compound was added to each well, in duplicate. […] The plates were then incubated for 48 hours at 37° C. in 5% (v/v) humidified CO2.
# The medium was removed from the above incubated plates by inversion and dried. Each well was then washed with 0.35 mL of 1× PBS. The PBS was then removed from the plates by inversion and the plates dried.
# To each well was then added 50 μL of 0.5% (v/v) Triton X-100 (Sigma) in 1× PBS and the plates placed on a rotary shaker for 5 min. The contents of each well were then transferred to an OptiPlate-96 (Packard) scintillation plate. To each well was then added 0.2 mL of Microscint-20 (Packard) and the wells counted on a TopCount (Packard).
# Percent inhibition was determined by testing dilutions of the test compound (usually duplicates of 10 μM) in the binding assay. Counts per well were measured and percents of inhibition determined. […] Counts per well were measured and IC50s determined by linear regression.
# [5] = read-out: IC50 (nM), COS Binding
structure (smiles),measurement,setting,value
CC(O)(Sc1ccc(N)cc1)c1cc2cc(Cl)c(C(F)(F)F)cc2[nH]1 (racemic) [Compound 265],"% Activity, L929 androgen receptor functional assay",[1],−1%
same,"% Inhibition, Androgen Receptor Binding (Rat Cytosol)",[2]; Concentration 3000 nM,93.5%
CC(O)(Sc1ccc(N)cc1)c1cc2cc([N+](=O)[O-])c(C(F)(F)F)cc2[nH]1 (racemic) [Compound 266],active / inactive: inhibition of testosterone-enhanced prostate weight,[3],inactive
same,"% Activity, L929 androgen receptor functional assay",[1],−4%
same,"% Inhibition, Androgen Receptor Binding (Rat Cytosol)",[2]; Concentration 3000 nM,12.4%
CCSCC(C)(O)c1cc2ccc(C(F)(F)F)cc2n1S(C)(=O)=O (stereo not shown) [Compound 214],IC50,[4]; [5],> 3000 nM
CCS(=O)(=O)CC(C)(O)c1[nH]c2cc(C(F)(F)F)c(C#N)cc2c1C (racemic) [Compound 246],inhibition at 3 µM,[4]; concentration of 3000 nM,70%
same,IC50,[4]; [5],616 nM
CN(C)c1ccc(S(=O)(=O)CC(C)(O)c2cc3cc(Cl)c(C(F)(F)F)cc3[nH]2)cc1 (racemic) [Compound 126],active / inactive: inhibition of testosterone-enhanced prostate weight,[3],inactive
same,"% Activity, L929 androgen receptor functional assay",[1],−5%
same,"% Inhibition, Androgen Receptor Binding (Rat Cytosol)",[2]; Concentration 3000 nM,−30%
CCSCC(C)(O)c1cc2cc(Cl)ccc2n1S(C)(=O)=O (racemic) [Compound 154],"% Activity, L929 androgen receptor functional assay",[1],2%
same,"% Inhibition, L929 androgen receptor functional assay","[1]; antagonist testing with R1881, 3000 nM",7%
same,"% Inhibition, COS Binding",[4]; concentration of 3000 nM,50%
CC(C)SC(C)(CO)c1cc2cc([N+](=O)[O-])c(C(F)(F)F)cc2[nH]1 (racemic) [Compound 268],active / inactive: inhibition of testosterone-enhanced prostate weight,[3],inactive
same,"% Activity, L929 androgen receptor functional assay",[1],9%
same,"% Inhibition, Androgen Receptor Binding (Rat Cytosol)",[2]; Concentration 3000 nM,−3.3%
CC(O)(CSc1ccc(C(=O)O)cc1)c1cc2cc(Cl)c(C(F)(F)F)cc2n1S(C)(=O)=O (stereo not shown) [Compound 132],inhibition at 3 µM,"[1]; L929, antagonist testing with R1881, 3000 nM",48%
same,"% Activity, L929 androgen receptor functional assay",[1],−5%
same,IC50,"[4]; IC50 (nM), COS Binding",> 3000 nM
same,inhibition at 3 µM,[4]; concentration of 3000 nM,8.7%
O=[N+]([O-])c1cc2cc(C3(O)CCN(Cc4ccc(Cl)c(Cl)c4)CC3)[nH]c2cc1C(F)(F)F [Compound 43],"% Inhibition, Androgen Receptor Binding (Rat Cytosol)",[2]; Concentration 1000 nM,5.8%
same,IC50,[2],9100 nM
COc1cccc(CN2CCC(O)(c3cc4cc([N+](=O)[O-])c(C(F)(F)F)cc4[nH]3)CC2)c1 [Compound 38],"% Inhibition, Androgen Receptor Binding (Rat Cytosol)","[2]; Concentration 1000 nM, 1 µM",16%
same,IC50,[2],8800 nM
CC(O)(CS(=O)(=O)Cc1ccccc1)c1cc2cc([N+](=O)[O-])c(C(F)(F)F)cc2[nH]1 (racemic) [Compound 162],active / inactive: inhibition of testosterone-enhanced prostate weight,[3],inactive
same,"% Activity, L929 androgen receptor functional assay",[1],2%
same,"% Inhibition, Androgen Receptor Binding (Rat Cytosol)",[2]; Concentration 3000 nM,0.69%
CC(O)(C[S+]([O-])c1ccccc1)c1cc2cc(Cl)c(C(F)(F)F)cc2[nH]1 (stereo not shown) [Compound 115],"% Inhibition, Androgen Receptor Binding (Rat Cytosol)","[2]; Concentration 1000 nM, 1 µM",54.5%
same,IC50,[2],1300 nM
CS(=O)(=O)c1ccc(CN2CCC(O)(c3cc4cc(Cl)c(C(F)(F)F)cc4[nH]3)CC2)cc1 [Compound 34],"% Inhibition, Androgen Receptor Binding (Rat Cytosol)",[2]; Concentration 1000 nM,18%
same,IC50,[2],5700 nM
Cc1ccc(CN2CCC(O)(c3cc4cc([N+](=O)[O-])c(C(F)(F)F)cc4[nH]3)CC2)cc1 [Compound 27],IC50,[2],3100 nM
CC(O)(c1cc2cc([N+](=O)[O-])c(C(F)(F)F)cc2[nH]1)S(=O)(=O)c1ccc(Cl)c(Cl)c1 (racemic) [Compound 255],"% Inhibition, Androgen Receptor Binding (Rat Cytosol)",[2]; Concentration 1000 nM,26%
O=[N+]([O-])c1cc2cc(C3(O)CCN(Cc4ccc(F)cc4)CC3)[nH]c2cc1C(F)(F)F [Compound 37],inhibition at 1 µM,[2]; Concentration 1000 nM,25%
same,IC50,[2],3600 nM
Cc1ccc(CN2CCC(O)(c3cc4cc([N+](=O)[O-])c(C(F)(F)F)cc4[nH]3)CC2)cc1 [Compound 42],inhibition at 1 µM,[2]; Concentration 1000 nM,23%
same,IC50,[2],7100 nM
OC1(c2cc3cc(Cl)c(C(F)(F)F)cc3[nH]2)CCN(Cc2ccc(C(F)(F)F)cc2)CC1 [Compound 33],"% Inhibition, Androgen Receptor Binding (Rat Cytosol)",[2]; Concentration 1000 nM,11%
same,IC50,[2],29000 nM

# — patent publication US7282507B2, “Indole derivatives as selective androgen receptor modulators (SARMS)” (Janssen Pharmaceutica N.V., priority 2004, dated 2007)
